{"source": "paper PMC10051608", "about": "“Multi-Compartmental Dissolution Method, an Efficient Tool for the Development of Enhanced Bioavailability Formulations Containing Poorly Soluble Acidic Drugs” (Pharmaceutics, 2023)", "key": {"[1]": {"test": "pH-dependent equilibrium solubility, saturation shake-flask method in Britton-Robinson buffers and 1 M NaOH", "format": "physicochemical", "settings": "37 °C; for solubility thermodynamic at 6 h: aqueous buffer, thermodynamic from solid, mean of 3, read-out: SpH ± SD", "description": "The saturation shake–flask method was used to determine the equilibrium solubility of the API [34, 35]. The measurements were carried out at 37 ± 0.1 °C. […] In case it was necessary, the pH was adjusted to the initial value with 1M NaOH solution after 1 h. The flasks were then placed in a GFL 1092 type shaking water bath (GFL GmbH, Burgwedel, Germany) and shaken at 150 rpm for 6 h. The agitation phase was followed by 18 h sedimentation at controlled temperature. A total of 3 aliquot (10–100 µL) samples were then taken from the saturated solution and diluted to the required extent (2–250x) with the tested medium. The concentration was measured by UV spectroscopy at λmax: 264 nm. […] In each medium, the solubility experiments were performed in triplicate."}, "[2]": {"test": "Equilibrium solubility in biorelevant media, saturation shake-flask method", "format": "physicochemical", "settings": "for solubility thermodynamic at 6 h: thermodynamic from solid, read-out: SpH ± SD; for increase in solubility: biorelevant media", "description": "The saturation shake–flask method was used to determine the equilibrium solubility of the API [34, 35]. The measurements were carried out at 37 ± 0.1 °C. […] In case it was necessary, the pH was adjusted to the initial value with 1M NaOH solution after 1 h. The flasks were then placed in a GFL 1092 type shaking water bath (GFL GmbH, Burgwedel, Germany) and shaken at 150 rpm for 6 h. The agitation phase was followed by 18 h sedimentation at controlled temperature. A total of 3 aliquot (10–100 µL) samples were then taken from the saturated solution and diluted to the required extent (2–250x) with the tested medium. The concentration was measured by UV spectroscopy at λmax: 264 nm. […] In each medium, the solubility experiments were performed in triplicate. […] The equilibrium solubility was also investigated in biorelevant media modelling gastric and small intestinal fluid in a fasted and fed state with and without solubilizing agents (pepsin or lecithin and bile acid salts). The tested biorelevant media were Blank FaSSGF, FaSSGF, Blank FaSSIF, FaSSIF, FeSSGF-acetate (without milk), Blank FeSSIF, and FeSSIF."}, "[3]": {"settings": "literature data measured at 25 °C; cited from earlier work"}}, "data": [{"compound": "CC(C)Cc1ccc(C(C)C(=O)O)cc1", "note": "(stereo not drawn) [ibuprofen]", "values": [{"measurement": "solubility thermodynamic at 6 h", "setting": "[1]; BR (Britton-Robinson) buffer, pH 1.92 (nominal pH 2.0) BR buffer", "value": "70.8 ± 3", "unit": "µg/mL"}, {"measurement": "solubility thermodynamic at 6 h", "setting": "[1]; BR (Britton-Robinson) buffer, pH 3.96 BR buffer", "value": "124 ± 13", "unit": "µg/mL"}, {"measurement": "solubility thermodynamic at 6 h", "setting": "[1]; BR (Britton-Robinson) buffer, pH 5.95 BR buffer", "value": "1910 ± 70", "unit": "µg/mL"}, {"measurement": "solubility thermodynamic at 6 h", "setting": "[1]; BR (Britton-Robinson) buffer, pH 7.17 BR buffer", "value": 32000, "unit": "µg/mL"}, {"measurement": "solubility thermodynamic at 6 h", "setting": "[1]; BR (Britton-Robinson) buffer, pH 8.02 BR buffer", "value": 300000, "unit": "µg/mL"}, {"measurement": "solubility thermodynamic at 6 h", "setting": "[1]; pH 14, 1 M NaOH", "value": 734000, "unit": "µg/mL"}, {"measurement": "logSpH", "setting": "[1]; pH 1.92 (nominal pH 2.0) BR buffer", "value": "−3.46", "unit": "mol/L"}, {"measurement": "logSpH", "setting": "[1]; pH 3.96 BR buffer", "value": "−3.22", "unit": "mol/L"}, {"measurement": "logSpH", "setting": "[1]; pH 5.95 BR buffer", "value": "−2.03", "unit": "mol/L"}, {"measurement": "logSpH", "setting": "[1]; pH 7.17 BR buffer", "value": "−0.81", "unit": "mol/L"}, {"measurement": "logSpH", "setting": "[1]; pH 8.02 BR buffer", "value": 0.16, "unit": "mol/L"}, {"measurement": "logSpH", "setting": "[1]; pH 14, 1 M NaOH", "value": 0.55, "unit": "mol/L"}, {"measurement": "solubility thermodynamic at 6 h", "setting": "[2]; FeSSGF-acetate (without milk), fassgf or other biorelevant, FeSSGF-acetate, pH 4.5, 37 °C", "value": "194 ± 2", "unit": "µg/mL"}, {"measurement": "increase in solubility", "setting": "[2]; changing the pH from 1.6 to 4.5", "value": 3.4, "unit": "fold"}, {"measurement": "increase in solubility", "setting": "[2]; changing the pH from 1.6 to 5.0", "value": 7.4, "unit": "fold"}, {"measurement": "increase in solubility", "setting": "[2]; changing the pH from 1.6 to 6.5", "value": 44.6, "unit": "fold"}, {"measurement": "solubility thermodynamic at 6 h", "setting": "[2]; fassgf or other biorelevant, FeSSIF blank, pH 5.0, 37 °C", "value": "416 ± 12", "unit": "µg/mL"}, {"measurement": "effect of pepsin on solubility", "setting": "[2]; gastric pH", "value": "no effect"}, {"measurement": "solubility thermodynamic at 6 h", "setting": "[2]; FaSSIF, pH 6.5, 37 °C", "value": "3160 ± 31", "unit": "µg/mL"}, {"measurement": "solubility thermodynamic at 6 h", "setting": "[2]; FeSSIF, pH 5.0, 37 °C", "value": "2100 ± 56", "unit": "µg/mL"}, {"measurement": "intrinsic solubility logS0", "setting": "[3]", "value": "−3.62"}]}]}
